According to patent US20090143311A1, “Compositions comprising tripeptides inhibiting ace” (priority 2005, published 2009):

Legend:
ACE [1] = experiment: at-line ACE inhibition assay; assay type: biochemical; settings: HHL substrate, PBS pH 7.4, 60 minutes at 50° C.
Text: The presence of novel ACE inhibiting peptides in CDBAP was investigated by using 2-dimensional-chromatographic-separation combined with an at-line ACE inhibition assay and mass spectrometry for identification. In the first analysis the peptide mixture was separated on an ODS3 liquid chromatography (LC) column and ACE inhibition profiles were generated from the various fractions obtained. In a second analysis the fractions from the first column showing a high ACE inhibition were further separated on a Biosuite LC column using a different gradient profile. The fractions collected from this second column were split into two parts: one part was used for the at-line ACE inhibition measurement while the other part was subjected to MS and MS-MS analysis to identify the peptides present. […]
The 96 well plate was then analysed on a flash-HPLC-column. […] Hippuric acid (H) and HHL were monitored at 280 nm. The peak heights of H and HHL were measured and the ACE inhibition (ACEI) of each fraction was calculated according to the equation: […]
The Degree of Cleavage was calculated by expressing the peak height of H as a fraction of the sum of the peak heights of H and HHL.

ACE [2] = experiment: modified Matsui ACE inhibition assay; assay type: biochemical
Protocol: Quantification of MAP and ITP in the various samples was performed on a Micromass Quattro II MS instrument operated in the positive electrospray, multiple reaction monitoring mode. The HPLC method used was similar to the one described above. The MS settings (ESI+) were as follows: cone voltage 37 V, capillary voltage 4 kV, drying gas nitrogen at 300 l/h. Source and nebulizer temperature: 100° C. and 250° C., respectively. The synthesized peptides were used to prepare a calibration line using the precursor ion 318.1 and the summed product ions […] for MAP and using the precursor ion 320.2 and the summed product ions […] for ITP. According to these analyses the novel ACE inhibiting tripeptides MAP and ITP are present in the CDBAP product in quantities corresponding with 2.9 mg MAP/gram CDBAP or 4.8 mg MAP/gram protein in CDBAP and 0.9 mg ITP/gram CDBAP en 1.4 mg ITP/gram protein in CDBAP. […]
Each one of the four samples contained 75 μl 3 mM hippuryl histidine leucine (Hip-His-Leu, Sigma) dissolved in a 250 mM borate solution containing 200 mM NaCl, pH 8.3. […] After incubation for 20 min. at 37° C., 4 ml 4 mM Na2SO3 in 0.2 M NaH2PO4 was added and the light absorbance at 416 nm was measured with UV/Vis spectrophotometer (Shimadzu UV-1601 with a CPS controller, Netherlands). […]

ACE [3] = target: ACE (Homo sapiens, UniProt P12821); settings: literature (Nakamura 1995; Aryoshi 1993); read-out: IC50 values reported earlier; cited from earlier work
ACE (Homo sapiens, UniProt P12821), sequence (P12821 30-1306, species assumed): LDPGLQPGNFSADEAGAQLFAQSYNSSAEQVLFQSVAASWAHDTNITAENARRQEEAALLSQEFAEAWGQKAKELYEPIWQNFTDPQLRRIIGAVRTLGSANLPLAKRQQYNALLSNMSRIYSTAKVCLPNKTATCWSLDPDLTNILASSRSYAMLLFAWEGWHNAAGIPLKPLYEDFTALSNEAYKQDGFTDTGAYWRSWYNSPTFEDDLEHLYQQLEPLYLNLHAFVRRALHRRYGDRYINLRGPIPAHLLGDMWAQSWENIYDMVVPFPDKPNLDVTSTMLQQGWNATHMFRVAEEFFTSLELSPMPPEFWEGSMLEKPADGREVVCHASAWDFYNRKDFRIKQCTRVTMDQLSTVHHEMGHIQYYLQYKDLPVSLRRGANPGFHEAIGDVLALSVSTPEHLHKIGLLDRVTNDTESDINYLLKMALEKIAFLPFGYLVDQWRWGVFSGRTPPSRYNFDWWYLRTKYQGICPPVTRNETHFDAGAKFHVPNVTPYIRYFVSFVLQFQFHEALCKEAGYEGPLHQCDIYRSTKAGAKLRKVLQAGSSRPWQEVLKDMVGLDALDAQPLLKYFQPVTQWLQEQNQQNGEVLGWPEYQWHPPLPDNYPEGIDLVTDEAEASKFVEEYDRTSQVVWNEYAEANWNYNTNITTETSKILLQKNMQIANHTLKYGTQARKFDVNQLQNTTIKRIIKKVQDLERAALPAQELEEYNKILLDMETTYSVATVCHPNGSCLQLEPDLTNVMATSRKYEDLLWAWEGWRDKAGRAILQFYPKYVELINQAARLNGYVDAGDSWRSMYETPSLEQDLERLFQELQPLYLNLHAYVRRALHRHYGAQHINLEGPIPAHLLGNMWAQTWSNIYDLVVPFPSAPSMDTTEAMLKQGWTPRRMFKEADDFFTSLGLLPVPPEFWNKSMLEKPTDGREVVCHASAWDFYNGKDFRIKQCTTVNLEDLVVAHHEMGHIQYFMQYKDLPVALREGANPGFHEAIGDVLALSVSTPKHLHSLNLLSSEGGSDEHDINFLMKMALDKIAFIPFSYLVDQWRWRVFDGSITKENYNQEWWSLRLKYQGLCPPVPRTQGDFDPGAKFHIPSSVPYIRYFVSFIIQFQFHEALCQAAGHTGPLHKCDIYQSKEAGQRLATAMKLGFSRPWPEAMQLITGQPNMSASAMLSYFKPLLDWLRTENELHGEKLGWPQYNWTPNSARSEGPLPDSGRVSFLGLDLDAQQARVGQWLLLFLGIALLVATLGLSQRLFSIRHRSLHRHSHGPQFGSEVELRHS

Substance | IC50 (ACE [1]) | IC50 (ACE [2]; chemically synthesized peptides, Hip-His-Leu, pH 8.3, 37° C., 30 min, read-out: IC50 value Modified Matsui assay) | IC50 (ACE [2]; read-out: IC50 value in Modified Matsui test) | IC50 (ACE [3])
IPP: known ACE inhibiting tripeptide, kappa-casein f108-110; chemically synthesized IPP used as internal reference | 7.1 µM | 2 µM | 2 µM | 5 µM
LPP: known ACE inhibiting tripeptide, β-casein f151-153 (UniProt P02666 166-168, looked up, fragment) |  |  |  | 9.6 µM
